# Assay results as given in US10561749B2, “Nuclear medicine diagnostic imaging agent” (Kyoto University, priority 2015, dated 2020).
# Legend:
# Assay type in all cases: biochemical
# EGFR (L858R) = target: T1, EGFR (L858R) (Homo sapiens, UniProt P00533, L858R); assay: EGFR tyrosine kinase inhibiting activity, ADP-Glo (EGFR (L858R) Kinase Enzyme System); conditions: read-out: EGFR Kinase inhibition: IC50 L858R
# T1 construct: purchased Promega V5322
# Experimental: (§1) Four types of EGFR Kinase Enzyme Systems, specifically, EGFR Kinase Enzyme System (Catalog No. V3831), EGFR (L858R) Kinase Enzyme System (Catalog No. V5322), EGFR (T790M) Kinase Enzyme System (Catalog No. V4506), and EGFR (T790M, L858R) Kinase Enzyme System (Catalog No. V5324) were used (all of them were manufactured by Promega).
# (§2) The measurement was carried out according to the Promega protocol applications guide. That is, a buffer solution (40 mM Tris-HCl, pH 7.5, 20 mM MgCl2, 50 μM DTT and 0.1 mg/mL BSA) was used as a dilute solution. The concentration of each compound started at 20 μM (the final concentration, including 1% DMSO) with 5-fold dilutions with the buffer solution. Thus, ten concentrations of each compound were prepared. Then, 2 μL of each concentration of each compound thus obtained was added to each well of a 384-well plate. Furthermore, 4 μL (20 ng) of an EGFR Kinase […] that came with each EGFR Kinase Enzyme System was added to each well, which then was incubated at room temperature for ten minutes. Subsequently, 4 μL of mixed solution of ATP (10 μM) and Poly(Glu, Tyr) (2 μg) substrate was added to each well, which then was incubated at room temperature for one hour. Then, 10 μL of ADP-Glo™ Reagent (ADP-Glo™ Kinase Assay, Promega) was added to each well, which then was reacted at room temperature for 40 minutes. Furthermore, 20 μL of Kinase Detection Reagent (ADP-Glo™ Kinase Assay, Promega) was added to each well, which then was reacted at room temperature for one hour. […] From the data thus obtained, dose-response curves and IC50 were calculated using GraphPad Prism 5 (GraphPad Software, Inc.). In Table 1 below, WT indicates the measurement results obtained with the EGFR Kinase Enzyme System, L858R indicates the measurement results obtained with the EGFR (L858R) Kinase Enzyme System, T790M indicates the measurement results obtained with the EGFR (T790M) Kinase Enzyme System, and DM indicates the measurement results obtained with the EGFR (T790M, L858R) Kinase Enzyme System.
# EGFR (T790M, L858R) = target: T2, EGFR (T790M, L858R) (Homo sapiens, UniProt P00533, L858R/T790M); assay: EGFR tyrosine kinase inhibiting activity, ADP-Glo (EGFR (T790M, L858R) Kinase Enzyme System, DM); conditions: for EGFR Kinase inhibition: IC50 DM: ATP 10 μM, max concentration 20 μM, >10: <50% inhibition at 10 μM, no active: almost no activity at 20 μM; for IC50: read-out: EGFR Kinase inhibition: IC50 DM
# T2 construct: purchased Promega V5324
# T2 sequence (P00533 25-1210 T790M/L858R): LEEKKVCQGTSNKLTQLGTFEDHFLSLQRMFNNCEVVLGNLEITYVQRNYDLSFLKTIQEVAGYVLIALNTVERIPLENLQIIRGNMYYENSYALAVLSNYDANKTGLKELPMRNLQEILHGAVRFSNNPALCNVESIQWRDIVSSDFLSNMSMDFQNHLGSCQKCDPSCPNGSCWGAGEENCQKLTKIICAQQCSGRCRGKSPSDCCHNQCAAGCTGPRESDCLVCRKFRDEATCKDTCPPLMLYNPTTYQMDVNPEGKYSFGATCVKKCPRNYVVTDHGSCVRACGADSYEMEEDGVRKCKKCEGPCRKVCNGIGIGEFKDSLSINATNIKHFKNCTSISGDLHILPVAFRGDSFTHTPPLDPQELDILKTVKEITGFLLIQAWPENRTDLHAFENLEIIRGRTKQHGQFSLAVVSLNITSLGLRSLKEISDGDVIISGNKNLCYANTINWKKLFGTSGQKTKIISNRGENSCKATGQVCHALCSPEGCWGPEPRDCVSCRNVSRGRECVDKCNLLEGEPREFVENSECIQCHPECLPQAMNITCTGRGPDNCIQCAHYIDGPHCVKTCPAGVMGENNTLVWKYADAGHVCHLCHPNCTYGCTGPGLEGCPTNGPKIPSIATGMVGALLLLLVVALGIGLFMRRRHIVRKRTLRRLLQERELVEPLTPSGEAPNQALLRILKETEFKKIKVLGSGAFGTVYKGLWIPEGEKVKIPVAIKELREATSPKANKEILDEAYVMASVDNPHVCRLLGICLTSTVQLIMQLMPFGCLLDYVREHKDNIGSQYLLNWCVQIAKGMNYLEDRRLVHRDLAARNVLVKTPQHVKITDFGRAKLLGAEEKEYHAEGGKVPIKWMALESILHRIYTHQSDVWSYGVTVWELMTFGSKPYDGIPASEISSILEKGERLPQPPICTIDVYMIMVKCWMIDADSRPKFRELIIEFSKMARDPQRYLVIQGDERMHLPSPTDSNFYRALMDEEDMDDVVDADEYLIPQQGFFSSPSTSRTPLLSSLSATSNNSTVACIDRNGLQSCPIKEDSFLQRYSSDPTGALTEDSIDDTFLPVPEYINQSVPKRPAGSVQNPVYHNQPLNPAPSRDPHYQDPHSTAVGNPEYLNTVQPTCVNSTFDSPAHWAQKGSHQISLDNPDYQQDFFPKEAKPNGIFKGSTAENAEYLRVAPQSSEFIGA
# Experimental: as §1, §2
# [1] = target: T3, EGFR tyrosine kinase (WT) (Homo sapiens, UniProt P00533); assay: EGFR tyrosine kinase inhibiting activity, ADP-Glo (EGFR Kinase Enzyme System, WT); conditions: read-out: EGFR Kinase inhibition: IC50 WT
# T3 construct: purchased Promega V3831
# T3 sequence (P00533 25-1210): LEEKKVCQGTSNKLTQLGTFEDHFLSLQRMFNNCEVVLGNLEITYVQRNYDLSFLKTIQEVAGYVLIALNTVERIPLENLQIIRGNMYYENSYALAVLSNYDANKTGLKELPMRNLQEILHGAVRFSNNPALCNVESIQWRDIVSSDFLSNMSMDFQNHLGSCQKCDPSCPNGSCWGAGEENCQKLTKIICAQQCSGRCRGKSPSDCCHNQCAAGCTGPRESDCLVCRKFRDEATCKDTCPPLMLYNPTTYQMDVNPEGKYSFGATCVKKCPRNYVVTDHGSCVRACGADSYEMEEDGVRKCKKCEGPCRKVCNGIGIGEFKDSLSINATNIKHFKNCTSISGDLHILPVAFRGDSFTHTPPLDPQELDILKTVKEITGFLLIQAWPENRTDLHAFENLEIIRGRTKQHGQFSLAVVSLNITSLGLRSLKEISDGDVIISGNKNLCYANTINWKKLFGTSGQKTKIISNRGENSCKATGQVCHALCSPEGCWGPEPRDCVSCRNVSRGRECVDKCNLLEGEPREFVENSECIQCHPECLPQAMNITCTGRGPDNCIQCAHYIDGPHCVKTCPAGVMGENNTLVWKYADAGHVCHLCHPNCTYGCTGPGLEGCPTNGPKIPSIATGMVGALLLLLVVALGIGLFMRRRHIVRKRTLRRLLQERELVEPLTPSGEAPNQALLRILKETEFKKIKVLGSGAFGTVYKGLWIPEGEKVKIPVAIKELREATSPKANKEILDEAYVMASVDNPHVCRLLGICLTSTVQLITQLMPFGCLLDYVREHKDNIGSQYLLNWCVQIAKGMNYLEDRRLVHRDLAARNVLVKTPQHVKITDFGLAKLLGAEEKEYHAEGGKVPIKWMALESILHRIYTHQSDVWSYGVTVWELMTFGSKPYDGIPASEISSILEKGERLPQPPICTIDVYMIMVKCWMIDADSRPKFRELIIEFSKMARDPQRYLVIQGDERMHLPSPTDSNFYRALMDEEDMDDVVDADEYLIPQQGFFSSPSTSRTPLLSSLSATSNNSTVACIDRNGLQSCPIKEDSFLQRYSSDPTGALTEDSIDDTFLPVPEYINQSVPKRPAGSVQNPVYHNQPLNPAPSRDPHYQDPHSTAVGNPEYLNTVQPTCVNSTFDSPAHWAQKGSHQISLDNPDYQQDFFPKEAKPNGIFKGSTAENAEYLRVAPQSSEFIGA
# Experimental: as §1, §2
# EGFR (T790M) = target: T4, EGFR (T790M) (Homo sapiens, UniProt P00533, T790M); assay: EGFR tyrosine kinase inhibiting activity, ADP-Glo (EGFR (T790M) Kinase Enzyme System); conditions: for EGFR Kinase inhibition: IC50 T790M: ATP 10 μM, max concentration 20 μM, >10: <50% inhibition at 10 μM, no active: almost no activity at 20 μM; for IC50: read-out: EGFR Kinase inhibition: IC50 T790M
# T4 construct: purchased Promega V4506
# T4 sequence (P00533 25-1210 T790M): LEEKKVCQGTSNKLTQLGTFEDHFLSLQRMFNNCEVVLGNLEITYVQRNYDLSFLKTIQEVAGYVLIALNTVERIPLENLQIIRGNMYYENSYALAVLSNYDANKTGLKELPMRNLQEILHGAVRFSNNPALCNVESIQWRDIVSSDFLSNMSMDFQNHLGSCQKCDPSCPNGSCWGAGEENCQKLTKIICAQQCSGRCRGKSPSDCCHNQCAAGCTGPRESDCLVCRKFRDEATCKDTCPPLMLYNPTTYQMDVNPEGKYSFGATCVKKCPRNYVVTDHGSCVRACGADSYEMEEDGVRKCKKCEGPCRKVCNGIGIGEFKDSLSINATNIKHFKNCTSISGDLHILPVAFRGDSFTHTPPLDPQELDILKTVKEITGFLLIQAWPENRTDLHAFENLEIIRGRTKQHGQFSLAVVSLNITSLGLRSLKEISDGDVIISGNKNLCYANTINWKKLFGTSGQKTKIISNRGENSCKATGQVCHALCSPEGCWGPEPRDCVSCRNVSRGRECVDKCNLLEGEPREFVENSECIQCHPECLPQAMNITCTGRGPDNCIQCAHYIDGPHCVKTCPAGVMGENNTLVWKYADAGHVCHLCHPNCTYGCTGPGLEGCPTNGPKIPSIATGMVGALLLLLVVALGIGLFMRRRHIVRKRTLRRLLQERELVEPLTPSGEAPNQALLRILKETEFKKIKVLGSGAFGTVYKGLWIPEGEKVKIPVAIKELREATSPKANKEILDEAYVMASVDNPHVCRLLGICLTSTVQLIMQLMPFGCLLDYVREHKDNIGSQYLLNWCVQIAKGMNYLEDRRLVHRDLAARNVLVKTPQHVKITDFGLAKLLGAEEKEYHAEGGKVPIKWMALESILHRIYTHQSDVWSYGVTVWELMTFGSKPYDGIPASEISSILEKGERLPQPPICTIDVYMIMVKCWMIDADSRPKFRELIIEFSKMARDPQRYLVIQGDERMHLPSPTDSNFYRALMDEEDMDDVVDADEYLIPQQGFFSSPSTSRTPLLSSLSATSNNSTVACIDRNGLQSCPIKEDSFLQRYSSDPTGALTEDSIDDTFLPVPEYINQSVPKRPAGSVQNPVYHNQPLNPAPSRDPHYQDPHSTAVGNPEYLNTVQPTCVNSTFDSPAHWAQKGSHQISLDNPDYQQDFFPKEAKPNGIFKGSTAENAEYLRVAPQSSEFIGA
# Experimental: as §1, §2
# T1 sequence (P00533 25-1210 L858R): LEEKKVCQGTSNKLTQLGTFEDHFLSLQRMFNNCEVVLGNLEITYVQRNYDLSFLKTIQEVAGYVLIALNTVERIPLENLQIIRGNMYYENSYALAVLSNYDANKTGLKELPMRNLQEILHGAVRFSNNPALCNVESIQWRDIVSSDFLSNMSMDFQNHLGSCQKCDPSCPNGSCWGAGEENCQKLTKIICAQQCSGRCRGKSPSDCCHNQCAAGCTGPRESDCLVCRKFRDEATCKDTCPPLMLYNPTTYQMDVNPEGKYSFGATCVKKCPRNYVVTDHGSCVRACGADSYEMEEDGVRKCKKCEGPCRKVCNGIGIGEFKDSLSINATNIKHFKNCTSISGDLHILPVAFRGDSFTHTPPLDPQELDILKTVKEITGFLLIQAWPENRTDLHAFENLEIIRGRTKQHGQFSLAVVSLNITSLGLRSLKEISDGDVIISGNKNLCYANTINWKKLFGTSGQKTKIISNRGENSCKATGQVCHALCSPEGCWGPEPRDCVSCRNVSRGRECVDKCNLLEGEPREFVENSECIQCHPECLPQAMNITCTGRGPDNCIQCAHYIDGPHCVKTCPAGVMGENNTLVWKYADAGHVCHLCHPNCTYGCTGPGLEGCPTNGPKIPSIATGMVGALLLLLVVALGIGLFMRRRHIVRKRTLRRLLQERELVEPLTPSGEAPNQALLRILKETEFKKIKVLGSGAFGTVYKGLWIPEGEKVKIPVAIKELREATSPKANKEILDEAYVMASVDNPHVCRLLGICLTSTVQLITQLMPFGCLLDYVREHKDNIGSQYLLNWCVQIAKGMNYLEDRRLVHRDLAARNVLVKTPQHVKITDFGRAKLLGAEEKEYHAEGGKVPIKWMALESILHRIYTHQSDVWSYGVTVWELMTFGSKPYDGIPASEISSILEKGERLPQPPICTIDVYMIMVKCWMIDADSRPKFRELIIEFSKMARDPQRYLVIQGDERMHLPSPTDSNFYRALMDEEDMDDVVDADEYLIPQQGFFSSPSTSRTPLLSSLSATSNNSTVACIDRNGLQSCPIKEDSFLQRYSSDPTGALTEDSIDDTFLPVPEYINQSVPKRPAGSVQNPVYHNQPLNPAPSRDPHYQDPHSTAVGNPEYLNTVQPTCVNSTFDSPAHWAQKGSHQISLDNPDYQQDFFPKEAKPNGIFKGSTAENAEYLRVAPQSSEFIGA
SMILES,IC50 (EGFR (L858R)) [µM],"EGFR Kinase inhibition: IC50 DM (EGFR (T790M, L858R))",IC50 [1] [µM],EGFR Kinase inhibition: IC50 T790M (EGFR (T790M)),"IC50 (EGFR (T790M, L858R)) [µM]",IC50 (EGFR (T790M)) [µM]
OC[C@@H](Nc1ncnc2sc3c(c12)CCN(CCF)C3)c1ccccc1 [P1],3.41,no active,2.31,no active,,
"O=C(CN1CCN(CCF)CC1)N1CCc2c(sc3ncnc(N[C@H](CO)c4ccccc4)c23)C1 [P3, (S)-2-(4-(2-Fluoroethyl)piperazin-1-yl)-1-(4-((2-hydroxy-1phenylethyl)amino)-5,8-dihydropyrido[4′,3′:4,5]thieno[2,3-d]pyrimidin-7(6H)-yl)ethan-1-one]",2.67,no active,4.37,no active,,
"O=C(CCN1CCN(CCF)CC1)N1CCc2c(sc3ncnc(N[C@H](CO)c4ccccc4)c23)C1 [P4, (S)-3-(4-(2-Fluoroethyl)piperazin-1-yl)-1-(4-((2-hydroxy-1phenylethyl)amino)-5,8-dihydropyrido[4′,3′:4,5]thieno[2,3-d]pyrimidin-7(6H)-yl)propan-1-one]",1.83,no active,2.83,no active,,
"O=C(/C=C/CN1CCN(CCF)CC1)N1CCc2c(sc3ncnc(O[C@@H](c4ccccc4)C(F)(F)F)c23)C1 [P6, (S,E)-4-(4-(2-Fluoroethyl)piperazin-1-yl)-1-(4-(2,2,2-trifluoro-1-phenylethoxy)-5,8-dihydropyrido[4′,3′:4,5]thieno[2,3-d]pyrimidin-7 (6H)-yl)but-2-en-1-one]",0.336,,0.896,no active,> 10,
COC[C@@H](Nc1ncnc2sc3c(c12)CCN(C(=O)/C=C/CN1CCN(CCF)CC1)C3)c1ccccc1 [P7],0.051,no active,0.374,no active,,
O=C(/C=C/CN1CCN(CCF)CC1)N1CCc2c(sc3ncnc(Nc4cccc(Br)c4)c23)C1 [P8],1.38,no active,4.31,no active,,
O=C(/C=C/CN1CCN(CCOCCOCCOCCF)CC1)N1CCc2c(sc3ncnc(N[C@H](CO)c4ccccc4)c23)C1 [P10],0.052,,0.09,,> 10,> 10

# Stronger by IC50 (EGFR (L858R)), values ahead:
IC50 (EGFR (L858R)) [µM],"EGFR Kinase inhibition: IC50 DM (EGFR (T790M, L858R))",IC50 [1] [µM],EGFR Kinase inhibition: IC50 T790M (EGFR (T790M)),"IC50 (EGFR (T790M, L858R)) [µM]",IC50 (EGFR (T790M)) [µM],SMILES
0.031,,0.067,,> 10,> 10,O=C(/C=C/CN1CCN(CCOCCF)CC1)N1CCc2c(sc3ncnc(N[C@H](CO)c4ccccc4)c23)C1 [P9]
0.027,,0.13,,> 10,> 10,"C[C@@H](Nc1ncnc2sc3c(c12)CCN(C(=O)/C=C/CN1CCN(CCF)CC1)C3)c1ccccc1 [P5, (R,E)-4-(4-(2-Fluoroethyl)piperazin-1-yl)-1-(4-((1-phenylethyl)amino)-5,8-dihydropyrido[4′,3′:4,5]thieno[2,3-d]pyrimidin-7(6H)-yl)but-2-en-1-one]"
0.009,,0.044,,> 10,8.97,"O=C(/C=C/CN1CCN(CCF)CC1)N1CCc2c(sc3ncnc(N[C@H](CO)c4ccccc4)c23)C1 [P2, (S,E)-4-(4-(2-Fluoroethyl)piperazin-1-yl)-1-(4-((2-hydroxy-1phenylethyl)amino)-5,8-dihydropyrido[4′,3′:4,5]thieno[2,3-d]pyrimidin-7(6H)-yl)but-2-en-1-one]"
